Test results taken from ChEMBL document CHEMBL1135321, “Tetrahydrothienopyridylbutyl-tetrahydrobenzindoles: new selective ligands of the 5-HT(7) receptor” (Bioorg Med Chem Lett, 2002).
The source made the active and inactive calls. No cut-off for these calls is given here.

Experiments:
[1] = target: Serotonin 2 (5-HT2) receptor (Rattus norvegicus, UniProt P30994+P08909+P14842); assay: Ability to displace the radioligand [3H]ketanserin from 5-hydroxytryptamine 2 receptor of rat cerebral cortex membrane; assay type: tissue-based
[2] = target: 5-hydroxytryptamine receptor 7 (Homo sapiens, UniProt P34969); assay: Ability to displace the radioligand [3H]5-carboxyamidotryptamine ([3H]5-CT) from human 5-hydroxytryptamine 7 receptor expressed in COS-7 cells; assay type: cell-based
Sequence of 5-hydroxytryptamine receptor 7 (P34969 whole entry): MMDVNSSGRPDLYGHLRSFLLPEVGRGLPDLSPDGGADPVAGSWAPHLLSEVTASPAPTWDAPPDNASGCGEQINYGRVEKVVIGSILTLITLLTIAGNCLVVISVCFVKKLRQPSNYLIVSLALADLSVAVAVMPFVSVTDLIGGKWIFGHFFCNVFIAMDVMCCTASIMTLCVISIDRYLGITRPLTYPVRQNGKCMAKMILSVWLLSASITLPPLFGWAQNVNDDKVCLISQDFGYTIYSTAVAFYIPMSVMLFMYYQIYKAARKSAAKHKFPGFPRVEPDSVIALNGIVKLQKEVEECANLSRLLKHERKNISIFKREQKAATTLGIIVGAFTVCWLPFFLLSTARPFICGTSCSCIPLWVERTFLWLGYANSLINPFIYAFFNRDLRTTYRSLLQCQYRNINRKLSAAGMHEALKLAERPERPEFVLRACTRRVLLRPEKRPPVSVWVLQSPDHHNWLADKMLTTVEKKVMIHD

[3] = target: 5-hydroxytryptamine receptor 6 (Homo sapiens, UniProt P50406); assay: Ability to displace the radioligand [3H]LSD from human 5-hydroxytryptamine 6 receptor
Sequence of 5-hydroxytryptamine receptor 6 (P50406 whole entry): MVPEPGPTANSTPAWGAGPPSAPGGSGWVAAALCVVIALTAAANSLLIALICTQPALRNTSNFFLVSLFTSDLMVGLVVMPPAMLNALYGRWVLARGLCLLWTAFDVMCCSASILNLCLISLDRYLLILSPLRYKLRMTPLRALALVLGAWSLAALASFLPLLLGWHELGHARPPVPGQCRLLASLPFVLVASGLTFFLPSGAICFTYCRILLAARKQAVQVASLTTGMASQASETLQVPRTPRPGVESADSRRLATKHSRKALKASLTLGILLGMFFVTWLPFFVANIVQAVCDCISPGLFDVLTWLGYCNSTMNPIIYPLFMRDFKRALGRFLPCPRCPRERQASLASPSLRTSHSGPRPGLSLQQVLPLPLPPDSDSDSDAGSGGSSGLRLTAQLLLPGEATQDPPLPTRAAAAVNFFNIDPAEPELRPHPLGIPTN

[4] = target: T1, 5-hydroxytryptamine receptor 1B (Rattus norvegicus, UniProt P28564); assay: Ability to displace the radioligand [125I](-)-iodocyanopindolol from rat striatal 5-HT1B receptor
T1 sequence (P28564 whole entry): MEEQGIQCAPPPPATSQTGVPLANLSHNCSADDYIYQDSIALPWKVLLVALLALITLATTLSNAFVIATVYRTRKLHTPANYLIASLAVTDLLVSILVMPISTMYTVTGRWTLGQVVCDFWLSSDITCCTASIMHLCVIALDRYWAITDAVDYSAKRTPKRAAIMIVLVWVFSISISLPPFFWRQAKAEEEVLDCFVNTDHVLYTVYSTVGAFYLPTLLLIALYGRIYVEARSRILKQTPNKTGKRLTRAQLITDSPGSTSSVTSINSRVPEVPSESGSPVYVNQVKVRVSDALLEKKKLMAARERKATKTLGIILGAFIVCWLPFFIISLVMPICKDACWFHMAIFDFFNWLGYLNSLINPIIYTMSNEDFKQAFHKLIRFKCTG

[5] = target: T2, 5-hydroxytryptamine receptor 4 (Cavia porcellus, UniProt O70528); assay: Ability to displace the radioligand [3H]GR-113808 from guinea pig striatum 5-HT4 receptor
T2 sequence (O70528 whole entry): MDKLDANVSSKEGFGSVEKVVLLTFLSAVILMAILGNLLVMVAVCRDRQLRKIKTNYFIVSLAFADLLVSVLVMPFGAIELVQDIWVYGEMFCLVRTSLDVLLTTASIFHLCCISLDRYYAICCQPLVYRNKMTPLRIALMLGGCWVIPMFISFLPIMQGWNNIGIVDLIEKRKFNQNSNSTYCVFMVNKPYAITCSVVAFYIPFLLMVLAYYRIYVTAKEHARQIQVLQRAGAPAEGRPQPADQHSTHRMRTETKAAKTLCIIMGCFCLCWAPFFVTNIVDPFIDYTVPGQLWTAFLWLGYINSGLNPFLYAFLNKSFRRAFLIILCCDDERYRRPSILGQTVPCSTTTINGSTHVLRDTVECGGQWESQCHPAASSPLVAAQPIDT

[6] = target: T3, Serotonin 3 receptor (5HT3) (Mus musculus, UniProt Q9JHJ5+P23979); assay: Ability to displace the radioligand [3H]GR-65630 from 5-hydroxytryptamine 3 receptor expressed in NIE-115 cells; assay type: cell-based
T3 sequence (Q9JHJ5 whole entry): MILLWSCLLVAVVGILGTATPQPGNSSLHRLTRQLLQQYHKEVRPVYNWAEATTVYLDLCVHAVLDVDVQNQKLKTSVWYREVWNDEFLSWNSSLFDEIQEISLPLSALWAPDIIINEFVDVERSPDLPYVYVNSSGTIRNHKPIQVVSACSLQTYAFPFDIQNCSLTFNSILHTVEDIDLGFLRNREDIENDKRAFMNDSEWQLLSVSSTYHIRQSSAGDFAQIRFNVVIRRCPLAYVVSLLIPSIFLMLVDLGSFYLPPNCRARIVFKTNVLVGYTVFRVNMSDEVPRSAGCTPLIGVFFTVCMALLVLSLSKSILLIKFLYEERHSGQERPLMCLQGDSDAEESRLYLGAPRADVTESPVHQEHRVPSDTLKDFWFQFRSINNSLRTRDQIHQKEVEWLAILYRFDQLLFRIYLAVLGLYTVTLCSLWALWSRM
T3 sequence (P23979 whole entry): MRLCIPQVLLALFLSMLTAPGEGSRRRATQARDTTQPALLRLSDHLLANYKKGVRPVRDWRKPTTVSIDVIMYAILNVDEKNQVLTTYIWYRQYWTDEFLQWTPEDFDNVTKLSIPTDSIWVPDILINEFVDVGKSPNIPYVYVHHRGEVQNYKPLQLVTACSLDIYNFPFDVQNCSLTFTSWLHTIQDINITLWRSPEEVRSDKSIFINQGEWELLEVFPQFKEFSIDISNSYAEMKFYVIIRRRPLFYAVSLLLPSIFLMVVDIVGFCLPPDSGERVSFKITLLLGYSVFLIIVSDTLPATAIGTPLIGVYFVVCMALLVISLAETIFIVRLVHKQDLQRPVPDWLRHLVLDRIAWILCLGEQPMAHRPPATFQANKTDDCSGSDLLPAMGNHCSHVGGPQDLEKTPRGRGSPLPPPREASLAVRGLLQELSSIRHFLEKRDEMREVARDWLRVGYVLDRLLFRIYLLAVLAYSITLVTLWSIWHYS

[7] = target: T4, 5-hydroxytryptamine receptor 1A (Homo sapiens, UniProt P08908); assay: Ability to displace the radioligand [3H]-8-OH-DPAT from human 5-hydroxytryptamine 1A receptor
T4 sequence (P08908 whole entry): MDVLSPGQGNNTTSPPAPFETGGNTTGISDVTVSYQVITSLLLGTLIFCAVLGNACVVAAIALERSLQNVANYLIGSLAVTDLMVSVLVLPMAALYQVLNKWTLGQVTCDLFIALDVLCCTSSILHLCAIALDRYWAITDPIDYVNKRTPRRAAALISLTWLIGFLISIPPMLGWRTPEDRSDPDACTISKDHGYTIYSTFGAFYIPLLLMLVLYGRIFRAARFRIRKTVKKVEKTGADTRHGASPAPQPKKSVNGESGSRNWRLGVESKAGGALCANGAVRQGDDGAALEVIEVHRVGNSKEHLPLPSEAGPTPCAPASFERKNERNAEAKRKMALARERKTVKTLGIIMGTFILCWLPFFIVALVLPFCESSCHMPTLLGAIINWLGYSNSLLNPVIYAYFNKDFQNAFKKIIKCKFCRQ

HEK293 = assay: Influence on 5-HT-induced stimulation of cAMP accumulation in HEK 293 cells; NS is not Stimulated; assay type: functional, cell-based; conditions: Homo sapiens
[8] = target: T1, 5-hydroxytryptamine receptor 1B; assay: Ability to displace the radioligand [125I](-)-iodocyanopindolol from rat striatal 5-hydroxytryptamine 1B receptor
[9] = target: T2, 5-hydroxytryptamine receptor 4; assay: Ability to displace the radioligand [3H]GR-113808 from guinea pig striatum 5-hydroxytryptamine 4 receptor

| SMILES | Log Ki [1] | Ki [2] [nM] | also measured |
| --- | --- | --- | --- |
| O=C1Nc2cccc3c2C1(CCCCN1CCc2n[nH]cc2C1)CCC3 (centres undefined) | < -6 | 813 |  |
| O=C1Nc2cccc3c2C1(CCCN1CCc2ccccc2C1)CCC3 (centres undefined) | -6.31 | 8.32 |  |
| O=C1Nc2cccc3c2C1(CCCCN1CCc2ccccc2C1)CCC3 (centres undefined) | -6.21 | 4.47 |  |
| O=C1Nc2cccc3c2C1(CCCCCN1CCc2ccccc2C1)CCC3 (centres undefined) | -6.16 | 12.6 |  |
| O=C1Nc2cccc3c2C1(CCCCN1CCc2[nH]cnc2C1)CCC3 (centres undefined) | < -6 | 562 |  |

The next lines start with results.

| Log Ki [1] | Ki [2] [nM] | SMILES | also measured |
| --- | --- | --- | --- |
| < -6 | 15.8 | O=C1Nc2cccc3c2C1(CCCCN1CCc2occc2C1)CCC3 (centres undefined) |  |
| -6.31 | 174 | CCN1C(=O)C2(CCCCN3CCc4sccc4C3)CCCc3cccc1c32 (centres undefined) |  |
| -6.02 | 9.77 | CN1C(=O)C2(CCCCN3CCc4sccc4C3)CCCc3cccc1c32 (centres undefined) | Ki [3]: > 1000 nM; Ki [4]: > 1000 nM; Ki [5]: > 1000 nM; Log Ki [6]: < -6; Ki [7]: 776 nM |
| -6.08 | 6.46 | O=C1Nc2cccc3c2C1(CCCCN1CCc2sccc2C1)CCC3 (centres undefined) | Ki [3]: > 1000 nM; Activity (HEK293): inactive; Log Ki [6]: < -6; Ki [8]: > 1000 nM; Ki [7]: 513 nM; Ki [9]: > 1000 nM |
